From US8937068B2, “Pyridopyrazine derivatives and their use” (Zentaris GmbH, priority 2005, dated 2015)

Legend:
[1] = target: PI3Kalpha (Homo sapiens (Human), UniProt P42336); test: Cell-free kinase assay (ALPHA technology), PI3Kalpha; format: biochemical; details: 100 μM ATP
Procedure, shortened: (§1)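 Recombinant human GST- or His-tagged kinases were assayed for 1 h with ALPHA bead detection read after overnight standing. For PI3Kalpha: 1 ng enzyme, 100 μM ATP, 20 μM PIP2 in Hepes pH 7.4, detected by GST:Grp1/biotin-PIP3 competition. The p38alpha and Jnk assays followed the MAPK format (10 μM ATP, biotin-MBP, anti-phospho-MBP); IC50 from %-inhibition.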

[2] = test system: Jnk1 + Jnk2; test: Cell-free kinase assay (ALPHA technology), Jnk1 + Jnk2; format: biochemical, human; details: 10 μM ATP
Procedure, shortened: as §1

[3] = test system: Hct116; test: XTT assay, anti-proliferative effect, Hct116; format: cell-based; details: Homo sapiens, HCT-116; 45 h incubation
Protocol: (§2) The principle of this test is based on the intracellular reduction of the tetrazolium dye XTT (sodium 3′-[1-(phenylaminocarbonyl)-3,4-tetrazolium]-bis(4-methoxy-6-nitro)benzene sulfonic acid, Sigma) to a formazan dye by mitochondrial dehydrogenases. The dye is only formed by metabolically active cells and its photometrically measurable intensity is a quantitative indicator for the presence of living cells. The reduction of dye formation by incubation of the cells with substances serves as a parameter for the anti-proliferative effect.
(§3) The tumour cell lines (ATCC) were injected into 96-well microtitre plates in a defined cell number (5000 cells/well for BxPC3 and Hct116; 10000 cells/well for MDA MB468) and then incubated overnight in an incubator at 37° C., 5% CO2 and 95% air humidity. The test substances were prepared as stock solutions (10 mM) in DMSO. […] The cell plates were then incubated for 45 h in an incubator at 37° C., 5% CO2 and 95% air humidity.
(§4) For the detection reaction the substrate XTT was mixed with PMS (N-Methyl dibenzopyrazine methylsulfate, Sigma) and added to the cells so that a final concentration of 325 μg XTT/ml and 2.5 μg PMS/ml was obtained. It was then incubated for 3 h at 37° C., 95% air humidity. The formazan salt formed by the cellular dehydrogenases could then be quantified by adsorption at 490 nm.
(§5) The % inhibition value was evaluated by means of the following formula from the values for the optical densities measured in each case at 490 nm:
(§6) Eight determinations were made for each control and two for the substance samples. The 0% control contains no cells, the 100% control (proliferation control) contains no test substance. The EC50 values were determined using GraphPadPrism.

[4] = target: p38alpha (Homo sapiens (Human), UniProt Q16539); test: Cell-free kinase assay (ALPHA technology), p38alpha; format: biochemical; details: 10 μM ATP
Sequence of p38alpha (Q16539 whole entry): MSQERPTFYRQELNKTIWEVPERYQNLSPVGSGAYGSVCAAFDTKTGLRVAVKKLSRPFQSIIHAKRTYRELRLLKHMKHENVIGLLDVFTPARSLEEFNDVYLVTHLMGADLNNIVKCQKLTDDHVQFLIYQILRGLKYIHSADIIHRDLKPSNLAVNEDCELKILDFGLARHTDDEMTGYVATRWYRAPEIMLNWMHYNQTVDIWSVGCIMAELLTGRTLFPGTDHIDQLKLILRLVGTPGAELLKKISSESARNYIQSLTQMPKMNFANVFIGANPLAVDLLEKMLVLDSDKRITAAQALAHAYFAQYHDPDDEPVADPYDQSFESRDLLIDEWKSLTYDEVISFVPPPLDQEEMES

[5] = target: Erk2 (Homo sapiens, UniProt P28482); test: Cell-free kinase assay (ALPHA technology), Erk2; format: biochemical; details: 10 μM ATP
Sequence of Erk2 (P28482 2-360 limits assumed): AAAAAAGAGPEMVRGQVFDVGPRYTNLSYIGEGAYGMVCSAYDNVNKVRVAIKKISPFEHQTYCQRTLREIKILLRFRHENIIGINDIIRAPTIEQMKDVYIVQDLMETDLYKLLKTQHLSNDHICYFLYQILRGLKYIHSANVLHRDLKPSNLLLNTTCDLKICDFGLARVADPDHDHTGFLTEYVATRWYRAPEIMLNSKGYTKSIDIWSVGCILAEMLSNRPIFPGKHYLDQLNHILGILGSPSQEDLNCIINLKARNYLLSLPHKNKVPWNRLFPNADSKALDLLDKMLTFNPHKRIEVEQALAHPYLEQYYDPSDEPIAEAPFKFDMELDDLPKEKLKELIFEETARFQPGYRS
Procedure, shortened: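 Recombinant tagged Erk2 kinase reactions were stopped with ALPHA bead mix […]. The signal was read after standing overnight. Controls were run in eight replicates and compounds in duplicate, and IC50 was fitted.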

[6] = test system: BxPC3; test: XTT assay, anti-proliferative effect, BxPC3; format: cell-based; details: Homo sapiens, BXPC-3; 45 h incubation
Protocol: as §2, §3, §4, §5, §6

[7] = test system: MDA-MB468; test: XTT assay, anti-proliferative effect, MDA-MB468; format: cell-based; details: Homo sapiens, MDA-MB-468; 45 h incubation
Protocol: as §2, §3, §4, §5, §6

[8] = test system: Erk → pRsk; test: Cellular substrate phosphorylation (Western Blotting), Erk substrate pRsk; format: cell-based; details: for inhibition at 50 µM: 5 h; for Erk inhibition / inhibition of the Erk substrate p-Rsk (in words): Western Blotting
Protocol: (§7) This method can be used to predict whether the kinase modulator under study also achieves the desired effect in a cellular context, i.e. in this case, a substrate protein downstream of the target kinase is investigated for its phosphorylation status. For this purpose, the cells incubated with substance are lysed and the total protein separated on a reducing polyacrylamide gel. The proteins are then transferred to a PVDF membrane by means of Western Blotting and the substrate bands sought are made visible with specific antibodies and a suitable detection method. The substrate proteins downstream of the target kinases are detected simultaneously with a respectively special anti-phospho-antibody and at the same time a total antibody which recognizes the substrate total protein. This simultaneous measurement can be made using the duplex technology of the ODYSSEY imagers (LiCOR). The intensity of the total substrate bands is used for normalising or quantifying the phosphorylation inhibition or activation.
(§8) Suitable tumour cell lines (e.g. BxPC3, Hct116 or MDA MB468) were injected into six-well microtitre plates in a defined cell number (e.g. 350 000 cells/well for BxPC3 and Hct116) in the respective standard complete medium and then incubated overnight at 37° C., 5% CO2 and 95% air humidity. The cells were then incubated for a further 24 h under serum-reduced conditions i.e. in the respective medium but with only 0.25% serum. The test substances were prepared as stock solutions (10 mM) in DMSO and incubated with the cells in final concentrations of 5, 15.8 and 50 μM for 5 h. This was followed by cell lysis in 25 mM Tris, 150 mM NaCl, 10 mM Na-pyrophosphate, 2 mM EGTA, 25 mM β-glycerophosphate, 25 mM NaF, 10% glycerine, 0.75% NP-40, 100 μM NaVO4 buffer. Following protein quantification by means of BCA (bicinchonic acid protein assay kit, Sigma) Assay, protein quantities of about 20 μg per track were separated on a Lämmli polyacrylamide gel and then transferred to a PVDF membrane (Millipore) by means of Semi-Dry Western-Blotting at 0.8 mA/cm^2 for 1 h. This was followed by pre-hybridisation of the membrane for 1 hour in I-block reagent (Applied Biosystems) and incubation overnight with the specific antibodies. To determine the Erk and PI3K inhibition, the respectively downstream substrates Rsk1 were detected with the total antibody (Rsk #sc-231g C-21, Santa Cruz) and the phospho-antibody (Phospho-p90RSK (S380) #9341, NEB Cell Signalling) and Akt was detected with the total antibody (Akt1 #sc-1618 C-20, Santa Cruz) and the phospho-antibody (Phospho-Akt (Ser 473) #9271, NEB Cell Signaling). After washing the membrane, secondary antibody incubation was carried out with anti-rabbit IR Dye 800 (#611-732-127, Rockland) for the phospho-antibody and anti-goat Alexa Fluor 680 (#A-21081, Molecular Probes) for the total protein-antibody. After incubating for 30 min at room temperature in the dark, the hybridisation of the detection antibody on the membrane was detected by scanning in the ODYSSEY imager (LiCOR).
(§9) The reduction of the fluorescence intensity of the phospho-substrate bands (pRsk and pAkt) is given in the table below as % inhibition and relates to the following formula:
(§10) The band intensity (fluorescence intensity) of the respective non-inhibited (without substance) phospho-substrates was used as 100% control.

[9] = test system: tumour cell lines (BxPC3, Hct116, MDA MB468); test: XTT assay, anti-proliferative effect on the cell lines used; format: cell-based; details: compared to the Exemplary Embodiments
Protocol: as §2
The tumour cell lines (ATCC) were injected into 96-well microtitre plates in a defined cell number (5000 cells/well for BxPC3 and Hct116; 10000 cells/well for MDA MB468) and then incubated overnight in an incubator at 37° C., 5% CO2 and 95% air humidity. […]
as §4, with “It was then incubated for 3 h at 37° C., 95% air humidity.” left out
as §5
Eight determinations were made for each control and two for the substance samples. […] The EC50 values were determined using GraphPadPrism.

[10] = test system: PI3K → pAkt; test: Cellular substrate phosphorylation (Western Blotting), PI3K substrate pAkt; format: cell-based; details: for inhibition at 50 µM: 5 h; for PI3K inhibition / inhibition of the PI3K substrate p-Akt (in words): Western Blotting
Protocol: as §7, §8, §9, §10

Sequence of PI3Kalpha (P42336 whole entry): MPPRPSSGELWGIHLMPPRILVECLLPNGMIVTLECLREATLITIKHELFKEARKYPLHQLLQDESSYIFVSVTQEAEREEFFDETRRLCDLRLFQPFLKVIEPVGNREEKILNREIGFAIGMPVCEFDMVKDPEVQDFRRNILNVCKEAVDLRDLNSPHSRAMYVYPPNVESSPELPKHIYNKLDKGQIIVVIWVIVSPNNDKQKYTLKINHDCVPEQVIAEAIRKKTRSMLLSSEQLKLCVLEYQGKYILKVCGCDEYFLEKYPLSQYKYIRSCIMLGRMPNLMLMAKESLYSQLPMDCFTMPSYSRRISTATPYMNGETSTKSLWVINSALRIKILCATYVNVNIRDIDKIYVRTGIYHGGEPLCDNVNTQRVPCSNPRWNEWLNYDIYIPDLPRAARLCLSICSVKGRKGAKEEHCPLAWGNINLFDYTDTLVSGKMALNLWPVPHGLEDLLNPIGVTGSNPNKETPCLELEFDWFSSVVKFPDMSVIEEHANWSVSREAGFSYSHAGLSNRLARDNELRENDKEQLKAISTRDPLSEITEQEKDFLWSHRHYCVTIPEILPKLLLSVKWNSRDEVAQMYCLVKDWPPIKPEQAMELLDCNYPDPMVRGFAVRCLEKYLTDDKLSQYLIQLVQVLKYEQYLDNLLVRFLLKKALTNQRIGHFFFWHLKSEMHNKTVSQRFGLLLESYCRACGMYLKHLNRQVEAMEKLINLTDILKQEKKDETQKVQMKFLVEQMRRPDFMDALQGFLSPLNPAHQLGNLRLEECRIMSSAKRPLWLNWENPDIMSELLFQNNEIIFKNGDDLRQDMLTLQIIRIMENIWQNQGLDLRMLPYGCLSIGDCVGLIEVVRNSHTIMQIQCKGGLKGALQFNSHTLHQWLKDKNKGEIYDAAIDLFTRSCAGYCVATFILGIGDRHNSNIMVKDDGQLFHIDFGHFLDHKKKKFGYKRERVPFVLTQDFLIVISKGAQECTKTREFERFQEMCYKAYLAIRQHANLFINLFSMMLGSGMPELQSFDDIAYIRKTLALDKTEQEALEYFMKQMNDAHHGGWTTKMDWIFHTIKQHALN
Sequence of PI3Kalpha (P27986 whole entry partner): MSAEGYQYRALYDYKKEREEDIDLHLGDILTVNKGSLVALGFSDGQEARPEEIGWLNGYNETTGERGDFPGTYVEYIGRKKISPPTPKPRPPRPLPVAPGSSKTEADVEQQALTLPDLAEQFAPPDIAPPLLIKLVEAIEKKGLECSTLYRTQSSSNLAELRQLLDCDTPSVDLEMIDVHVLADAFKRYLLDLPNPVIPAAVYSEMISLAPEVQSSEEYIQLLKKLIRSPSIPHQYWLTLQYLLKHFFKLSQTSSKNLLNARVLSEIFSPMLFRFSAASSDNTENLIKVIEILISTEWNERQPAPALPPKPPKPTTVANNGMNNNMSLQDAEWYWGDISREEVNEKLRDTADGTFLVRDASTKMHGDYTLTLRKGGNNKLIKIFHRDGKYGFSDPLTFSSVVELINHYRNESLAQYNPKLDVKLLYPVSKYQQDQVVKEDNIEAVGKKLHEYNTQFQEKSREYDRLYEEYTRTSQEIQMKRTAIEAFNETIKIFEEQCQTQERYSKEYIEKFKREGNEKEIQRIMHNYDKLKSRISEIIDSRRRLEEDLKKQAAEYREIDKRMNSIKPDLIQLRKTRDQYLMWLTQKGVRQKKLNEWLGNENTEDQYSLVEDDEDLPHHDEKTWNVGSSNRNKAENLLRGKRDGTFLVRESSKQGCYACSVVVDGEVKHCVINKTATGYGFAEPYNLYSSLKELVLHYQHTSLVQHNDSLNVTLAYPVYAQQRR

Row | SMILES | IC50 [1] [µM] | IC50 [2] [µM] | EC50 [3] [µM] | IC50 [4] [µM] | IC50 [5] [µM] | EC50 [6] [µM] | EC50 [7] [µM] | inhibition at 50 µM [8] [%] | Erk inhibition / inhibition of the Erk substrate p-Rsk (in words) [8] | anti-proliferative effects on the cell lines used (in words) [9] | inhibition at 50 µM [10] [%] | PI3K inhibition / inhibition of the PI3K substrate p-Akt (in words) [10]
1 | CCNC(=O)Nc1ccc2ncc(-c3ccc(OC)c(OC)c3)nc2n1 [Compound 153, 1-[3-(3,4-Dimethoxy-phenyl)-pyrido[2,3-b]pyrazin-6-yl]-3-ethyl-urea] | 0.612 | 6.7 | 6 | > 100 | 0.939 | > 25 | 24 | – | – | – | – | –
2 | CCNC(=O)Nc1ccc2ncc(-c3cc(Cl)c(O)c(OC)c3)nc2n1 [Compound 156, 1-[3-(3-Chloro-4-hydroxy-5-methoxy-phenyl)-pyrido[2,3-b]pyrazin-6-yl]-3-ethyl-urea] | 0.425 | 2.1 | 1.4 | > 100 | 0.138 | 8.9 | 15 | – | – | – | – | –
3 | CCNC(=O)Nc1ccc2ncc(Nc3cccc(C)c3)nc2n1 [Compound 157, 1-Ethyl-3-(3-m-tolylamino-pyrido-[2,3-b]pyrazin-6-yl)-urea] | 0.348 | 28.5 | 4.4 | > 100 | > 100 | > 25 | 3.5 | – | – | – | – | –
4 | COC[C@H]1OC(=O)c2coc3c2[C@@]1(C)C1=C(C3=O)[C@@H]2CCC(=O)[C@@]2(C)C[C@H]1OC(C)=O [Wortmannin, reference compound] | – | – | – | – | – | – | – | 0 | no Erk or p-RSK inhibition | – | 100 | complete inhibition of the PI3K substrate pAkt

Further lines, with some results ahead:

Row | IC50 [1] [µM] | IC50 [2] [µM] | EC50 [3] [µM] | IC50 [4] [µM] | IC50 [5] [µM] | EC50 [6] [µM] | EC50 [7] [µM] | SMILES | inhibition at 50 µM [8] [%] | Erk inhibition / inhibition of the Erk substrate p-Rsk (in words) [8] | anti-proliferative effects on the cell lines used (in words) [9] | inhibition at 50 µM [10] [%] | PI3K inhibition / inhibition of the PI3K substrate p-Akt (in words) [10]
5 | 0.444 | 24.3 | > 25 | > 100 | 19.6 | > 50 | 5.2 | CCNC(=O)Nc1ccc2ncc(Nc3ccc(O)cc3)nc2n1 [Compound 164, 1-Ethyl-3-[3-(4-hydroxy-phenylamino)-pyrido[2,3-b]pyrazin-6-yl]-urea] | – | – | – | – | –
6 | – | – | 17 | – | – | 25 | 20 | O=c1cc(N2CCOCC2)oc2c(-c3ccccc3)cccc12 [Ly294002, reference compound] | 0 | no Erk inhibition | weak anti-proliferative effects | 40 | only weak PI3K inhibition
